The values below come from PMC3202988 (Nature chemical biology, 2011).

This experiment addresses T1, OGA (O-GlcNAcase) (Homo sapiens, UniProt O60502).
T1 sequence (O60502 1-916): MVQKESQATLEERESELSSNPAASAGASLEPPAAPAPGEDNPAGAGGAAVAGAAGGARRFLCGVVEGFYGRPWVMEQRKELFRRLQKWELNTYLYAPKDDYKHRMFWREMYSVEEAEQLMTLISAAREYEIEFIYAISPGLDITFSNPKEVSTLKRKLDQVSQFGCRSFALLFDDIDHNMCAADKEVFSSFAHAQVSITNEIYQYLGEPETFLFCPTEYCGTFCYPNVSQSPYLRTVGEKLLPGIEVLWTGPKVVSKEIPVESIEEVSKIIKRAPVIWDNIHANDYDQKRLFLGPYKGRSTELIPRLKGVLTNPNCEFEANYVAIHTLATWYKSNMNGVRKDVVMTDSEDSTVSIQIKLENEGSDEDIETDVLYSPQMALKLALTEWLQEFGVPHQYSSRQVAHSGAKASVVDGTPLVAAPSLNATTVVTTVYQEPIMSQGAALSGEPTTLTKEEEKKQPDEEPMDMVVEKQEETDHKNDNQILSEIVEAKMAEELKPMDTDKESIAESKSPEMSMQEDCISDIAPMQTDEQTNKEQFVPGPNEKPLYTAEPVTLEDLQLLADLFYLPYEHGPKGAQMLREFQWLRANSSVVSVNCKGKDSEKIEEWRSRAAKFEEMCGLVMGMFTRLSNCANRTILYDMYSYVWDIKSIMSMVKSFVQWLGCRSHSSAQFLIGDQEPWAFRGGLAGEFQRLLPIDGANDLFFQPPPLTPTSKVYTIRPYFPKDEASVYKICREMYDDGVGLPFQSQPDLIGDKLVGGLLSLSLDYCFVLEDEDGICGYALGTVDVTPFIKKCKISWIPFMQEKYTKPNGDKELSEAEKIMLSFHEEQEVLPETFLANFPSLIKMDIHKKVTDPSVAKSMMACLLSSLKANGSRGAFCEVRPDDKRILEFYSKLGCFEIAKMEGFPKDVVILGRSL
As to the kind of experiment: Michaelis-Menten hydrolysis kinetics, absorbance at […] nm. Format: biochemical.

For the compound `COc1ccc(O[C@@H]2O[C@H](CO)[C@@H](O)[C@H](O)[C@H]2NC(C)=O)cc1` [compound 6, para-methoxyphenyl 2-acetamido-2-deoxy-β-D-glucopyranoside], the “Michaelis-Menten hydrolysis kinetics, absorbance at 296 nm” value was found to be 40.7 μmol s^−1 mg^−1 M^−1.
The result for `COc1ccc(O[C@@H]2S[C@H](CO)[C@@H](O)[C@H](O)[C@H]2NC(C)=O)cc1` [compound 7, para-methoxyphenyl 2-acetamido-2-deoxy-5-thio-β-D-glucopyranoside] reads 8.1 μmol s^−1 mg^−1 M^−1.
